Experimental data published in patent US12677830B2, “3-alkoxybenzamide derivative, and pest control agent” (Kumiai Chemical Industry Co., Ltd., priority 2020, dated 2026).

Experiments:
Type in all cases: in vivo
Plutella xylostella = assay: Test for insecticidal activity against Plutella xylostella (cabbage leaf dip); details: foliar, 144 h, 500 ppm active ingredient (wettable powder in water), cabbage leaves immersed, ten second instar larvae, 25° C., 6 days after the treatment, read-out: mortality rate
Experimental: [Test Example 1] Test for Insecticidal Activity Against Plutella xylostella
(§1) The wettable powder prepared in accordance with Formulation Example 2 was diluted with water to a concentration of 500 ppm as an active ingredient. Cabbage leaves were immersed in the chemical solution, air-dried, and then placed in a plastic cup. Ten second instar larvae of Plutella xylostella were released into the cup, and the cup was capped. Thereafter, the cup was placed in a room at constant temperature of 25° C. The number of dead insects was examined at 6 days after the treatment, and the mortality rate was calculated by the calculation formula of Equation 1. The number of replicate is one in each test.
(§2) The compound numbers of the compounds showing a mortality rate of 90% or more in this test are listed below.

Helicoverpa armigera = assay: Test for insecticidal activity against Helicoverpa armigera (cabbage leaf dip); details: foliar, 144 h, 500 ppm active ingredient (wettable powder in water), cabbage leaves immersed, five hatching larvae, 25° C., 6 days after the treatment, read-out: mortality rate
Experimental: [Test Example 2] Test for Insecticidal Activity Against Helicoverpa armigera
as §1, with “Five hatching” for “Ten second instar”, “Helicoverpa armigera” for “Plutella xylostella”, “two” for “one”
as §2

Nilaparvata lugens = assay: Test for insecticidal activity against Nilaparvata lugens (rice sprout dip); details: 144 h, 500 ppm active ingredient (wettable powder in water), rice sprouts immersed, ten second instar larvae, 25° C., 6 days after the treatment, read-out: mortality rate
Experimental: [Test Example 3] Test for Insecticidal Activity Against Nilaparvata lugens
The wettable powder prepared in accordance with Formulation Example 2 was diluted with water to a concentration of 500 ppm as an active ingredient. The rice sprouts were immersed in the chemical solution, and placed in a plastic cup. Ten second instar larvae of Nilaparvata lugens were released into the plastic cup, and the cup was capped. Thereafter, the cup was placed in a room at constant temperature of 25° C. The number of dead insects was examined at 6 days after the treatment, and the mortality rate was calculated by the calculation formula of Equation 1. The number of replicate is one in each test.
as §2

Aphis gossypii = assay: Test for control effect against Aphis gossypii (cucumber seedling dip); details: 72 h, 500 ppm active ingredient (wettable powder in water), cucumber seedling inoculated with nymphs immersed, 25° C., 3 days after the treatment, read-out: mortality rate
Experimental: [Test Example 4] Test for Control Effect Against Aphis gossypii
The wettable powder prepared in accordance with Formulation Example 2 was diluted with water to a concentration of 500 ppm as an active ingredient. A cucumber seedling previously inoculated with Aphis gossypii nymphs was immersed in the chemical solution, and air-dried. The treated cucumber seedling was placed in a room at constant temperature of 25° C. The number of surviving insects was counted at 3 days after the treatment, and the mortality rate was calculated by the calculation formula of Equation 1. The number of replicate is one in each test.
as §2

Tetranychus urticae = assay: Test for control effect against Tetranychus urticae (soybean seedling dip); details: 312 h, 500 ppm active ingredient (wettable powder in water), soybean seedling inoculated with 35 female adults immersed, 25° C., 13 days after the treatment, read-out: controlling value
Experimental: [Test Example 5] Test for Control Effect Against Tetranychus urticae
The wettable powder prepared in accordance with Formulation Example 2 was diluted with water to a concentration of 500 ppm as an active ingredient. A soybean seedling previously inoculated with 35 female adults of Tetranychus urticae was immersed in the chemical solution, and air-dried. The treated soybean seedling was placed in a room at constant temperature of 25° C. The number of surviving female adults was examined at 13 days after the treatment, and the controlling value was determined by the calculation formula of Equation 2. The number of replicate is one in each test.
The compound numbers of the compounds showing a controlling value of 90 or more in this test are listed below.

CC(COc1cc(C(=O)NCC(F)(F)F)c(Cl)cc1F)N(C(=O)OC(C)(C)C)S(=O)(=O)C(F)(F)F (stereo not shown) [Compound C-9422, tert-butyl(1-{4-chloro-2-fluoro-5-[(2,2,2-trifluoroethyl)carbamoyl]phenoxy}propan-2-yl)[(trifluoromethyl)sulfonyl]carbamate]
mortality at 500 ppm (Plutella xylostella): ≥ 90% | mortality at 500 ppm (Helicoverpa armigera): ≥ 90% | mortality at 500 ppm (Nilaparvata lugens): ≥ 90% | mortality at 500 ppm (Aphis gossypii): ≥ 90% | pest or weed control at 500 ppm (Tetranychus urticae): ≥ 90%

C[C@@H](COc1cc(C(=O)NC2(C#N)CC2)c(Cl)cc1F)NS(=O)(=O)C(F)(F)F [Compound C-2980, (S)-2-chloro-N-(1-cyanocyclopropyl)-4-fluoro-5-{2-[(trifluoromethyl)sulfonamido]propoxy}benzamide]
mortality at 500 ppm (Plutella xylostella): ≥ 90% | mortality at 500 ppm (Nilaparvata lugens): ≥ 90% | mortality at 500 ppm (Aphis gossypii): ≥ 90% | pest or weed control at 500 ppm (Tetranychus urticae): ≥ 90%

CC(=O)N(CC(F)(F)F)C(=O)c1cc(OCC(C)NS(=O)(=O)C(F)(F)F)c(F)cc1Cl (stereo not shown) [Compound C-4214, N-acetyl-2-chloro-4-fluoro-N-(2,2,2-trifluoroethyl)-5-{2-[(trifluoromethyl)sulfonamido]propoxy}benzamide]
mortality at 500 ppm (Plutella xylostella): ≥ 90% | mortality at 500 ppm (Helicoverpa armigera): ≥ 90% | mortality at 500 ppm (Nilaparvata lugens): ≥ 90% | mortality at 500 ppm (Aphis gossypii): ≥ 90% | pest or weed control at 500 ppm (Tetranychus urticae): ≥ 90%

O=C(NCC(F)(F)F)c1cc(OCCCCCSC(F)(F)F)c(F)cc1Cl [Compound A-4689, 2-chloro-4-fluoro-N-(2,2,2-trifluoroethyl)-5-({5-[(trifluoromethyl)thio]pentyl}oxy)benzamide]
pest or weed control at 500 ppm (Tetranychus urticae): ≥ 90%

CC(CCl)COc1cc(C(=O)NCC(F)(F)F)c(Cl)cc1F (stereo not shown) [Compound A-0037, 2-chloro-5-(3-chloro-2-methylpropoxy)-4-fluoro-N-(2,2,2-trifluoroethyl)benzamide]
pest or weed control at 500 ppm (Tetranychus urticae): ≥ 90%

C[C@@H](COc1cc(C(=O)NCC(F)(F)F)c(Cl)cc1F)NS(=O)(=O)C(F)(F)F [Compound C-0006, (S)-2-chloro-4-fluoro-N-(2,2,2-trifluoroethyl)-5-{2-[(trifluoromethyl)sulfonamido]propoxy}benzamide]
mortality at 500 ppm (Plutella xylostella): ≥ 90% | mortality at 500 ppm (Helicoverpa armigera): ≥ 90% | mortality at 500 ppm (Nilaparvata lugens): ≥ 90% | mortality at 500 ppm (Aphis gossypii): ≥ 90% | pest or weed control at 500 ppm (Tetranychus urticae): ≥ 90%

N#CSCCCCCOc1cc(C(=O)NCC(F)(F)F)c(Cl)cc1F [Compound A-0752, 2-chloro-4-fluoro-5-[(5-thiocyanatopentyl)oxy]-N-(2,2,2-trifluoroethyl)benzamide]
mortality at 500 ppm (Nilaparvata lugens): ≥ 90%

CC(COc1cc(C(=O)NCC(F)(F)F)c(Cl)cc1F)CSC#N (stereo not shown) [Compound A-0758, 2-chloro-4-fluoro-5-(2-methyl-3-thiocyanatopropoxy)-N-(2,2,2-trifluoroethyl)benzamide]
pest or weed control at 500 ppm (Tetranychus urticae): ≥ 90%

CC(=O)N(CC(F)(F)F)C(=O)c1cc(OCCCCCSC(F)(F)F)c(F)cc1Cl [Compound A-6814, N-acetyl-2-chloro-4-fluoro-N-(2,2,2-trifluoroethyl)-5-({5-[(trifluoromethyl)thio]pentyl}oxy)benzamide]
mortality at 500 ppm (Nilaparvata lugens): ≥ 90% | pest or weed control at 500 ppm (Tetranychus urticae): ≥ 90%

C[C@H](COc1cc(C(=O)NCC(F)(F)F)c(Cl)cc1F)NS(=O)(=O)C(F)(F)F [Compound C-0005, (R)-2-chloro-4-fluoro-N-(2,2,2-trifluoroethyl)-5-{2-[(trifluoromethyl)sulfonamido]propoxy}benzamide]
pest or weed control at 500 ppm (Tetranychus urticae): ≥ 90%

C[C@@H](COc1cc(C(=O)NC2CC2)c(Cl)cc1F)NS(=O)(=O)C(F)(F)F [Compound C-0130, (S)-2-chloro-N-cyclopropyl-4-fluoro-5-{2-[(trifluoromethyl)sulfonamido]propoxy}benzamide]
mortality at 500 ppm (Plutella xylostella): ≥ 90% | mortality at 500 ppm (Helicoverpa armigera): ≥ 90% | mortality at 500 ppm (Nilaparvata lugens): ≥ 90% | mortality at 500 ppm (Aphis gossypii): ≥ 90% | pest or weed control at 500 ppm (Tetranychus urticae): ≥ 90%

O=C(NCC(F)(F)F)c1cc(OCCCCCBr)c(F)cc1Cl [Compound A-0030, 5-[(5-bromopentyl)oxy]-2-chloro-4-fluoro-N-(2,2,2-trifluoroethyl)benzamide]
pest or weed control at 500 ppm (Tetranychus urticae): ≥ 90%

CC(COc1cc(C(=O)NCC(F)(F)F)c(Cl)cc1F)CSC(F)(F)F (stereo not shown) [Compound B-0009, 2-chloro-4-fluoro-5-{2-methyl-3-[(trifluoromethyl)thio]propoxy}-N-(2,2,2-trifluoroethyl)benzamide]
mortality at 500 ppm (Plutella xylostella): ≥ 90% | mortality at 500 ppm (Helicoverpa armigera): ≥ 90% | mortality at 500 ppm (Nilaparvata lugens): ≥ 90% | mortality at 500 ppm (Aphis gossypii): ≥ 90% | pest or weed control at 500 ppm (Tetranychus urticae): ≥ 90%

CC(COc1cc(C(=O)NCC(F)(F)F)c(Cl)cc1F)NS(=O)(=O)C(F)(F)F (stereo not shown) [Compound C-0004, 2-chloro-4-fluoro-N-(2,2,2-trifluoroethyl)-5-{2-[(trifluoromethyl)sulfonamido]propoxy}benzamide]
mortality at 500 ppm (Plutella xylostella): ≥ 90% | mortality at 500 ppm (Helicoverpa armigera): ≥ 90% | mortality at 500 ppm (Nilaparvata lugens): ≥ 90% | mortality at 500 ppm (Aphis gossypii): ≥ 90% | pest or weed control at 500 ppm (Tetranychus urticae): ≥ 90%

Cc1cc(F)c(OCCCCCSC(F)(F)F)cc1C(=O)NCC(F)(F)F [Compound A-4712, 4-fluoro-2-methyl-N-(2,2,2-trifluoroethyl)-5-({5-[(trifluoromethyl)thio]pentyl}oxy)benzamide]
pest or weed control at 500 ppm (Tetranychus urticae): ≥ 90%

Fc1cc(Cl)c(C(=S)NCC(F)(F)F)cc1OCCCCCSC(F)(F)F [Compound A-5172, 2-chloro-4-fluoro-N-(2,2,2-trifluoroethyl)-5-({5-[(trifluoromethyl)thio]pentyl}oxy)thiobenzamide]
pest or weed control at 500 ppm (Tetranychus urticae): ≥ 90%

N#CCN(CC(F)(F)F)C(=O)c1cc(OCCCCCSC(F)(F)F)c(F)cc1Cl [Compound A-6692, 2-chloro-N-(cyanomethyl)-4-fluoro-N-(2,2,2-trifluoroethyl)-5-({5-[(trifluoromethyl)thio]pentyl}oxy)benzamide]
mortality at 500 ppm (Plutella xylostella): ≥ 90% | pest or weed control at 500 ppm (Tetranychus urticae): ≥ 90%
